Source: US20030171377A1, “Antidiabetic agents” (priority 2001, published 2003)
Counter-ions that a name gives are not always drawn.

How the values were obtained:
3T3-L1 preadipocytes = assay: 3T3-L1 Adipocyte Differentiation Assay (ADPDIFF), Test A; assay type: cell-based; details: BODIPY lipid fluorescence, reported as % of BRL 49653 at 5 μM
Procedure: Cells are replenished with FBS containing media on day 5 of post-drug treatment and incubated for additional 4-6 days. Cells are stained with BODIPY a fluorescent lipophilic stain to quantitate the lipid content of the cells. The assay is optimized for a 96-well plate format. Approximately after 10 days of post-drug treatment, cells are fixed in 3% formalin solution for 15 min followed by staining with BODIPY (80 μg/ml) for 20 min at room temperature. The plate is then put through the CYTOFLUOR instrument to measure the fluorescence of BODIPY (excitation=485/20; emission=530/25).

[1] = test system: CV-1 cells (FATP promoter luciferase reporter, 300 nM BRL); assay: ANTCV1 Antagonist Transcription Assay, Test B; assay type: cell-based, African green monkey; details: Chlorocebus sabaeus, 25 μM test compound with 300 nM BRL, 48 hrs, % BRL inhibition, read-out: ANTCV1 INHIB @ 25 μM
[2] = test system: endogenous nuclear receptors in CV-1 cells; assay: CV-1 Native Receptors Transcription Assay (MKNRCV1), Test C; assay type: cell-based, African green monkey; details: for MKNRCV1 % BRL @ 25 μM: percent activity of BRL 49653; for EC50: Chlorocebus sabaeus, CV-1 cells, 48 hours, unit inferred
[3] = Blood Glucose Measurement (Glucose Δ), Test D; assay type: in vivo, mice; design: key to Glucose Δ: change in blood glucose, mg/dL; details: for Glucose Δ: 4 hours post dose, 4 hour fasted animals, tail vein whole blood; for % BRL (in vivo, beside Glucose Δ): glucose change relative to BRL
Procedure: Test D—Blood Glucose Measurement (Glucose Δ) Glucose is obtained 4 hours post dose via tail vein stick (5 μl whole blood) in awake, 4 hour fasted animals. Blood is drawn by capillary action into a glucose cuvette and read in a HemoCue Glucose Analyzer (Ryan Diagnostics). Blood is diluted 1:2 with saline if glucose levels are greater than 400 mg/dl (meter high range) and results multiplied by two.

| EC50 [2] [µM] | melting point [°C] | Compound | ADPDIFF % BRL @ 5 μM (3T3-L1 preadipocytes) [% BRL] | inhibition at 25 µM [1] [%] | MKNRCV1 % BRL @ 25 μM [2] [% BRL] | Glucose Δ [3] | % BRL (in vivo, beside Glucose Δ) [3] [% BRL] |
| --- | --- | --- | --- | --- | --- | --- | --- |
| 2 | – | Cc1oc(-c2ccccc2)nc1CCOc1ccc(CC(C)(C(=O)O)n2cccc2)cc1 (stereo not shown) | 117 | -80.3 | 87 | – | – |
| – | – | CCc1nnc([C@H](Cc2ccc(OCCc3nc(-c4ccccc4)oc3C)cc2)n2cccc2)o1 | 88 | 53.8 | 12 | 46.5 | −20.0 |
| 12.9 | – | Cc1oc(-c2ccccc2)nc1CCOc1ccc(CC(C(=O)O)n2cccc2C(=O)c2ccccc2)cc1 (stereo not shown) | 33 | – | 46 | 108.6 | −50.3 |
| 2.2 | – | Cc1oc(-c2ccccc2)nc1CCOc1ccc(CC(C(=O)O)n2ccc(C(=O)c3ccccc3)c2)cc1 (stereo not shown) | 102 | -20 | 91 | −84.4 | 60.8 |
| 0.01 | – | Cc1oc(-c2ccccc2)nc1CCOc1ccc(C[C@@H](C(=O)O)n2cccc2Cl)cc1 | 86 | -17.5 | 70 | 54.8 | −40.1 |
| – | – | Cc1oc(-c2ccccc2)nc1CCOc1ccc(CC(C(=O)O)n2cccc2)cc1 (stereo not shown) | 67 | – | 86 | −196.0 | 109.4 |
| 16 | – | Cc1oc(-c2ccccc2)nc1CCOc1ccc(C[C@@H](C(=O)O)n2c(C)cc(C(=O)C(F)(F)F)c2C)cc1 | 2 | 12 | 28 | – | – |
| – | – | CC(=O)c1cc(C)n([C@@H](Cc2ccc(OCCc3oc(-c4ccccc4)nc3C)cc2)C(=O)O)c1C | 0 | -15 | 27 | – | – |
| – | – | Cc1oc(-c2ccccc2)nc1CCOc1ccc(C[C@@H](C(=O)O)n2c(C)cc(Cl)c2C)cc1 | 28 | 5 | 55 | – | – |
| 0.3 | – | Cc1oc(-c2ccccc2)nc1CCOc1ccc(CC(C(=O)O)c2ccccc2)cc1 (stereo not shown) | 94 | -48 | 109 | 49.2 | −35.5 |
| 1 | – | CN(CCOc1ccc(CC(C(=O)O)c2ccccc2)cc1)c1nc2ccccc2o1.Cl (stereo not shown) | 109 | -45 | 91 | 172.0 | −52.0 |
| 0.2 | – | Cc1oc(-c2ccccc2)nc1CCOc1ccc(CC(C(=O)O)c2ccc(C(F)(F)F)cc2)cc1 (stereo not shown) | 107 | -49 | 78 | 246.8 | −180.4 |
| 0.4 | – | Cc1oc(-c2ccccc2)nc1CCOc1ccc(CC(C(=O)O)c2cccnc2)cc1.Cl (stereo not shown) | 132 | -112 | 58 | −72.5 | 31.1 |
| – | – | Cc1oc(-c2ccccc2)nc1CCOc1ccc(C[C@H](C(=O)O)c2ccccc2)cc1 | 31 | -44 | 50 | – | – |
| – | – | Cc1oc(-c2ccccc2)nc1CCOc1ccc(CC(C(=O)O)c2cccs2)cc1 (stereo not shown) | 88 | -127 | 111 | – | – |
| – | – | Cc1oc(-c2ccccc2)nc1CCOc1ccc(CC(C(=O)O)N2CCCC2=O)cc1 (stereo not shown) | 0 | -94 | 29 | – | – |
| – | – | Cc1oc(-c2ccccc2)nc1CCOc1ccc(CC(C(=O)O)c2ccncc2)cc1 (stereo not shown) | 2 | 55 | 20 | – | – |
| 2.9 | – | CN(CC#Cc1ccc(C[C@@H](C(=O)O)n2cccc2)cc1)c1ccccc1 | 83 | -31 | 92 | 182.8 | −55.3 |

| EC50 [2] [µM] | melting point [°C] | Compound | ADPDIFF % BRL @ 5 μM (3T3-L1 preadipocytes) [% BRL] | inhibition at 25 µM [1] [%] | MKNRCV1 % BRL @ 25 μM [2] [% BRL] | Glucose Δ [3] | % BRL (in vivo, beside Glucose Δ) [3] [% BRL] |
| --- | --- | --- | --- | --- | --- | --- | --- |
| 0.7 | – | O=C(O)[C@H](Cc1ccc(OCCSc2nc3ccccc3s2)cc1)n1cccc1 | 97 | -102 | 102 | 155.0 | −66.5 |
| – | – | Cc1oc(-c2ccccc2)nc1CC#Cc1ccc(C[C@@H](C(=O)O)n2cccc2)cc1 | 100 | – | 94 | 62.0 | −45.3 |
| – | – | Cc1oc(-c2ccccc2)nc1CCCc1ccc(C[C@@H](C(=O)O)n2cccc2)cc1 | 62 | – | 69 | −166.6 | 121.8 |
| – | – | CN(CCCc1ccc(C[C@@H](C(=O)O)n2cccc2)cc1)c1ccccc1 | 61 | – | 68 | 63.0 | −27.0 |
| – | 110 to 113 | Cc1oc(-c2ccccc2)nc1CCN(Cc1ccccc1)Cc1ccc(C[C@@H](C(=O)O)n2cccc2)cc1 (as salt: salt) | – | – | – | – | – |
| – | 146 to 147 | Cc1oc(-c2ccccc2)nc1CCOc1ccc(C[C@@H](C(=O)O)c2cccs2)cc1 (stereo in doubt) (hydrate or solvate) [Example 32, 3-{4-[2-(5-Methyl-2-phenyl-oxazol-4-yl)-ethoxy]-phenyl}-2-thiophen-2-yl-propionic acid] | – | – | – | – | – |
| 9.5 | – | Cc1oc(-c2ccccc2)nc1CCOc1ccc(CC(F)(C(=O)O)c2ccccc2)cc1 (stereo not shown) [drawing 216] | 122 | 37 | 63 | – | – |
| – | – | Cc1oc(-c2ccccc2)nc1CCOc1ccc(CC(C)(C)C(=O)O)cc1 [drawing 217] | 131 | 59 | 34 | – | – |
| 13 | – | Cc1oc(-c2ccccc2)nc1CCOc1ccc(CC(C)(C(=O)O)c2ccccc2)cc1 (stereo not shown) [drawing 218] | 99 | 65 | 44 | – | – |
| – | – | CCc1nnc(C(Cc2ccc(OCCc3nc(-c4ccccc4)oc3C)cc2)c2ccccc2)o1 (stereo not shown) [drawing 225] | 161 | 47 | 61 | – | – |
| 3.6 | – | CC(=O)c1cccn1[C@@H](Cc1ccc(OCCc2nc(-c3ccccc3)oc2C)cc1)C(=O)O [drawing 230] | 89 | 20 | 60 | 12.4 | −5.1 |
| 1.7 | – | Cc1oc(-c2ccccc2)nc1CCOc1ccc(C[C@@H](C(=O)O)n2cccc2C(=O)C(F)(F)F)cc1 [drawing 233] | 105 | -1 | 75 | −157.2 | 113.3 |
| 0.9 | – | Cc1oc(-c2ccccc2)nc1CCOc1ccc(C[C@@H](C(=O)O)n2ccc(-c3ccccc3)c2)cc1 [drawing 241] | 125 | 29 | 54 | −194.0 | 83.3 |
| 0.15 | – | Cc1oc(-c2ccccc2)nc1CCOc1ccc(C[C@@H](C(=O)O)c2ccccc2)cc1 [drawing 252] | 95 | -104 | 106 | −58.8 | 17.8 |
| 9.2 | – | Cc1sc(-c2ccccc2)nc1CCOc1ccc(C[C@@H](C(=O)O)n2cccc2)cc1 [drawing 269] | 92 | -20 | 76 | – | – |
| 1.3 | – | O=C(O)[C@H](Cc1ccc(C#CCN2CCC(c3ccccc3)CC2)cc1)n1cccc1 [drawing 288] | 112 | -42 | 78 | – | – |
| – | – | O=C(O)[C@H](Cc1ccc(/C=C/CN2CCC(c3ccccc3)CC2)cc1)n1cccc1 [drawing 292] | 183 | 44 | 40 | – | – |
| – | – | O=C(O)[C@H](Cc1ccc(CCCN2CCC(c3ccccc3)CC2)cc1)n1cccc1 [drawing 293] | 38 | 50 | 22 | – | – |
